Measured values published in EP0212605A2, “Azolyl-cyclopropyl-ethanol derivatives, processes for their preparation and their use” (HOECHST AKTIENGESELLSCHAFT, priority 1985, dated 1987).

System: Candida albicans
Assay: Oral and parenteral in vivo efficacy in mice experimentally infected with Candida albicans (survival time)
Parameters: species or system Mäusen (Stamm HOE: NMRKF; SPF 71)
Conditions: for d̄ Tage: mean survival time of 5 mice; for Überlebenszeit in % (Standardpräp.= 100%): relative to Ketoconazol = 100%
Experimental: Zur Feststellung der oralen und parenteralen Wirksamkeit wurden Gruppen von je 5 18-20 g schweren Mäusen (Stamm HOE: NMRKF; SPF 71) mit 2 . 10^6 Keimen/Tier infiziert.
Die Behandlung der Tiere erfolgte oral bzw. subcutan in 8 gleichen Einzeldosen zu je 30 mg/kg bzw. 10 mg/kg Körpergewicht (-24/-18/-2h/+2/24/30/48/54h).
Neben der mit den erfindungsgemäßen Substanzen I behandelten Gruppe von 5 Tieren wurde zum Vergleich eine Gruppe von ebenfalls 5 Tieren mit der Referenzsubstanz Ketoconazol behandelt. Eine kontrollgruppe von 10 Tieren blieb nach der Infektion unbehandelt.

Q: Which “d̄ Tage” value (Oral 8x10 mg/kg) does the source give for OC(Cn1cncn1)(c1ccc(F)cc1)C1CC1c1ccc(Cl)cc1Cl (single isomer, unassigned) [27 b] here?
A: 9,2 Tage

Q: And the “Überlebenszeit in % (Standardpräp.= 100%)” value (“Überlebenszeit in %” below) (Oral 8x10 mg/kg)?
A: 164,3%

Q: And the “d̄ Tage” value (Oral 8x30 mg/kg)?
A: 11,6 Tage

Q: And the “Überlebenszeit in %” value (Oral 8x30 mg/kg)?
A: 145,0%

Q: And the “d̄ Tage” value (Subcutan 8x10 mg/kg)?
A: 10,4 Tage

Q: And the “Überlebenszeit in %” value (Subcutan 8x10 mg/kg)?
A: 162,5%

Q: What about the “d̄ Tage” value (Subcutan 8x30 mg/kg) of the same compound?
A: 12,6 Tage

Q: And the “Überlebenszeit in %” value (Subcutan 8x30 mg/kg)?
A: 157,5%

Q: OC(Cn1cncn1)(c1ccc(Cl)cc1Cl)C1CC1c1ccc(Cl)cc1 (single isomer, unassigned) [29 a] was tested. Which “d̄ Tage” value (Oral 8x10 mg/kg) did it give?
A: 6,8 Tage

Q: And the “Überlebenszeit in %” value (Oral 8x10 mg/kg)?
A: 121,4%

Q: What about the “d̄ Tage” value (Oral 8x30 mg/kg) of the same compound?
A: 9,8 Tage

Q: And the “Überlebenszeit in %” value (Oral 8x30 mg/kg)?
A: 122,5%

Q: And the “d̄ Tage” value (Subcutan 8x10 mg/kg)?
A: 7,2 Tage

Q: What about the “Überlebenszeit in %” value (Subcutan 8x10 mg/kg) of the same compound?
A: 112,5%

Q: And the “d̄ Tage” value (Subcutan 8x30 mg/kg)?
A: 11,4 Tage

Q: What about the “Überlebenszeit in %” value (Subcutan 8x30 mg/kg) of the same compound?
A: 142,5%

Q: OC(Cn1cncn1)(c1ccc(Cl)cc1)C1CC1c1ccc(Cl)cc1 (single isomer, unassigned) [34 b] was tested. Which “d̄ Tage” value (Oral 8x10 mg/kg) did it give?
A: 11,6 Tage

Q: What about the “Überlebenszeit in %” value (Oral 8x10 mg/kg) of the same compound?
A: 207,1%

Q: And the “d̄ Tage” value (Oral 8x30 mg/kg)?
A: 13,0 Tage

Q: What about the “Überlebenszeit in %” value (Oral 8x30 mg/kg) of the same compound?
A: 162,5%

Q: What about the “d̄ Tage” value (Subcutan 8x10 mg/kg) of the same compound?
A: 11,0 Tage

Q: And the “Überlebenszeit in %” value (Subcutan 8x10 mg/kg)?
A: 171,9%

Q: And the “d̄ Tage” value (Subcutan 8x30 mg/kg)?
A: 8,0 Tage

Q: And the “Überlebenszeit in %” value (Subcutan 8x30 mg/kg)?
A: 100,0%

Q: For CC(=O)N1CCN(c2ccc(OCC3COC(Cn4ccnc4)(c4ccc(Cl)cc4Cl)O3)cc2)CC1 (centres unmarked) [Ketoconazol, reference compound], which “d̄ Tage” value (Oral 8x10 mg/kg) is on record?
A: 5,6 Tage

Q: And the “Überlebenszeit in %” value (Oral 8x10 mg/kg)?
A: 100,0%

Q: What about the “d̄ Tage” value (Oral 8x30 mg/kg) of the same compound?
A: 8,0 Tage

Q: What about the “Überlebenszeit in %” value (Oral 8x30 mg/kg) of the same compound?
A: 100,0%

Q: What about the “d̄ Tage” value (Subcutan 8x10 mg/kg) of the same compound?
A: 6,4 Tage

Q: And the “Überlebenszeit in %” value (Subcutan 8x10 mg/kg)?
A: 100,0%

Q: What about the “d̄ Tage” value (Subcutan 8x30 mg/kg) of the same compound?
A: 8,0 Tage

Q: What about the “Überlebenszeit in %” value (Subcutan 8x30 mg/kg) of the same compound?
A: 100,0%
